Consider 16 compounds from patent US8624034B2, “Fluoro-pyridinone derivatives useful as antibacterial agents” (Pfizer Inc., priority 2011, dated 2014).

The structures appear in SMILES notation. Converted amounts (≈) assume the structure as drawn. Where only a bound is given, the exact number is not on record here.

In assay [1] the target is T1, Pseudomonas aeruginosa LpxC enzyme (Pseudomonas aeruginosa, UniProt P47205).
T1 construct: made in house; host or cells: E. coli
T1 sequence (P47205 1-303): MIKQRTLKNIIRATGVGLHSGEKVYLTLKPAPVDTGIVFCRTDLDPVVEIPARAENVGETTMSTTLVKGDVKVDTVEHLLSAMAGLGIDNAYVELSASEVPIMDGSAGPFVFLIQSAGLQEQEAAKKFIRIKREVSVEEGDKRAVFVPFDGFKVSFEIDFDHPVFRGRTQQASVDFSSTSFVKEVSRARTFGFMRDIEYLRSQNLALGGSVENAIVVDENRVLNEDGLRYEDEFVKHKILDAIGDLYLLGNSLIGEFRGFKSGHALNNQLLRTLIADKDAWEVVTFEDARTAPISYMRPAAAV
The assay is described as follows: IC50 assay, LpxC enzyme from P. aeruginosa (PA LpxC enzyme IC50). Conditions: Table 2; LpxC enzyme 0.1 nM, 25° C., 1 hour; read-out: PA:IC50. Format: biochemical. The method, boiled down:
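IC50 values came from percent conversion, referenced to a no-enzyme control. Conversion was read by RapidFire HTMS mass spectrometry after HCl quench of the 1 h enzyme reaction.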

For assay [2], the system named is Pseudomonas aeruginosa UI-18: wild-type (PA-7). Description: MIC determination, PA-7. It is filed as cell-based. Conditions: Table 2, lower of duplicate values. As for the experimental part: The in vitro antibacterial activity of compounds described in the Examples was evaluated by minimum inhibitory concentration (MIC) testing according to Clinical and Laboratory Standards Institute (CLSI). See: Clinical and Laboratory Standards Institute. Methods for Dilution Antimicrobial Susceptibility Tests for Bacteria that Grow Aerobically; Approved Standard-Eighth Edition. CLSI document M7-A8 [ISBN 1-56238-689-1]. Clinical and Laboratory Standards Institute, 940 West Valley Road, Suite 1400, Wayne, Pa. 19087-1898 USA, 2006; also Clinical and Laboratory Standards Institute. Performance Standards for Antimicrobial Susceptibility Testing; Twentieth Informational Supplement. CLSI document M100-S20 [ISBN 1-56238-716-2]. Clinical and Laboratory Standards Institute.
The MIC determination is a standard laboratory method for evaluating the antibacterial activity of a compound. The MIC represents the lowest drug concentration that inhibits visible growth of bacteria following overnight incubation. […] Typically, the drug concentration range is broken down into 2-fold increments (e.g. 0.06 μg/mL, 0.12 μg/mL. 0.25 μg/mL, 0.50 μg/mL, 1.0 μg/mL, etc.) and the various drug concentrations are all individually incubated overnight with approximately the same number of bacteria. The MIC is then determined by visually inspecting the drug effect at each concentration, and identifying the lowest drug concentration that has inhibited bacterial growth as compared to the drug free control. Typically, bacteria continue to grow at drug concentrations lower than the MIC and don't grow at concentrations at and above the MIC.
The MIC values described in Table 2 and 3 below were derived from assays wherein each test compound was evaluated in duplicate. In cases where the duplicate values varied by 0-2-fold, the lower of the two values was reported below. Generally speaking, if the duplicate values varied by more than 2-fold, the assay was considered non-valid and was repeated until the variation between duplicate runs was ≦2-fold. In line with the CLSI guidelines referred to above, both control organisms and reference compounds were utilized in each MIC assay to provide proper quality control. MIC values generated with these control organisms and reference compounds were required to fall within a defined range for the assay to be considered valid and be included herein. Those skilled in the art will recognize that MIC values can and do vary from experiment to experiment. Generally speaking, it should be recognized that MIC values often vary +/−2-fold from experiment to experiment. While a single MIC is reported for each compound and each microorganism, the reader should not conclude that each compound was only tested once. Several of the compounds were subjected to multiple tests. The data reported in Tables 2 and 3 is reflective of the compounds relative activity and different MICs may have been generated on these occasions in line with the guidelines described above.
The following bacterial strains were used in these MIC determinations:
1) Pseudomonas aeruginosa UI-18: Wild-type, labeled as PA-7 in Tables 2 and 3;

Assay [3] concerns Escherichia coli EC-1: VOGEL, mouse virulent. The assay is described as follows: MIC determination, EC-1. It is filed as cell-based. Conditions: Escherichia coli, read-out: EC-1 (MIC), Table 2, lower of duplicate values. The method, boiled down:
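Duplicate runs differing by more than 2-fold were repeated, and otherwise the lower MIC was kept. The test organism was E. coli EC-1 (VOGEL, mouse virulent), incubated overnight across 2-fold compound dilutions following CLSI guidelines. The MIC was read visually as the lowest concentration inhibiting growth relative to drug-free control.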

Assay [4] has as its system Acinetobacter baumannii/haemolyticus, multidrug-resistant clinical isolate (AB-3167). Description: MIC determination, AB-3167. Conditions: Table 2, lower of duplicate values. It is filed as cell-based. The method, boiled down:
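MIC read visually after overnight growth across 2-fold concentration steps in the CLSI dilution method against the multidrug-resistant clinical isolate. Duplicate determinations, lower value reported when within 2-fold, otherwise repeated; every run checked with control organisms and reference drugs.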

On to `COc1c(-c2ccccc2)c(F)cn(CC[C@](C)(C(=O)NO)S(C)(=O)=O)c1=O` [Example 39, (2R)-4-(5-Fluoro-3-methoxy-2-oxo-4-phenylpyridin-1(2H)-yl)-N-hydroxy-2-methyl-2-(methylsulfonyl)butanamide], for which, in assay [1], the IC50 worked out at 8.07 nM. For the same compound, the MIC in assay [2] was found to be 8 µg/mL (≈ 19.4 µM); in assay [3], 4 µg/mL (≈ 9.7 µM); in assay [4] it was 64 µg/mL (≈ 155 µM).

Regarding `C[C@@](CCn1cc(F)c(-c2ccc(-n3nccn3)c(F)c2)cc1=O)(C(=O)NO)S(C)(=O)=O` [Example 36, (2R)-4-{5-Fluoro-4-[3-fluoro-4-(2H-1,2,3-triazol-2-yl)phenyl]-2-oxopyridin-1(2H)-yl}-N-hydroxy-2-methyl-2-(methylsulfonyl)butanamide], the IC50 in assay [1] was 0.398 nM. Further, the MIC in assay [2] is 1 µg/mL (≈ 2.14 µM); in assay [3] it was 0.5 µg/mL (≈ 1.07 µM); in assay [4], greater than 64 µg/mL.

Regarding `C[C@@](CCn1cc(F)c(-c2ccc(-c3ncco3)cc2)cc1=O)(C(=O)NO)S(C)(=O)=O` [Example 42, (2R)-4-[5-Fluoro-4-[4-(1,3-oxazol-2-yl)phenyl]-2-oxopyridin-1(2H)-yl]-N-hydroxy-2-methyl-2-(methylsulfonyl)butanamide], the IC50 in assay [1] was 0.328 nM. Besides, the MIC in assay [2] was 1 µg/mL (≈ 2.22 µM); in assay [3] it was 0.25 µg/mL (≈ 0.556 µM); in assay [4], greater than 64 µg/mL.

On to `C[C@@](CCn1cc(F)c(-c2ccc(OC3CC3)cc2)cc1=O)(C(=O)NO)S(C)(=O)=O` [Example 46, (2R)-4-{4-[4-(Cyclopropyloxy)phenyl]-5-fluoro-2-oxopyridin-1(2H)-yl}-N-hydroxy-2-methyl-2-(methylsulfonyl)butanamide], for which the IC50 in assay [1] turned out to be 0.229 nM. Further, the MIC in assay [2] is 0.5 µg/mL (≈ 1.14 µM); in assay [3], 0.125 µg/mL (≈ 0.285 µM); in assay [4], greater than 64 µg/mL.

For `C[C@@](CCn1cc(F)c(-c2ccc(OC(F)(F)F)cc2)cc1=O)(C(=O)NO)S(C)(=O)=O` [Example 30, (2R)-4-{5-Fluoro-2-oxo-4-[4-(trifluoromethoxy)phenyl]pyridin-1(2H)-yl}-N-hydroxy-2-methyl-2-(methylsulfonyl)butanamide], the IC50 in assay [1] came out at 0.106 nM. Besides, the MIC in assay [2] is 0.5 µg/mL (≈ 1.07 µM); in assay [3], 0.25 µg/mL (≈ 0.536 µM); in assay [4] it was greater than 64 µg/mL.

In the case of `C[C@@](CCn1cc(F)c(-c2ccc(-n3nccn3)cc2)cc1=O)(C(=O)NO)S(C)(=O)=O` [Example 26, (2R)-4-{5-Fluoro-2-oxo-4-[4-(2H-1,2,3-triazol-2-yl)phenyl]pyridin-1(2H)-yl}-N-hydroxy-2-methyl-2-(methylsulfonyl)butanamide], in assay [1], the IC50 amounted to 0.0743 nM. The MIC in assay [2] was 0.25 µg/mL (≈ 0.556 µM); in assay [3] it was no more than 0.06 µg/mL; in assay [4], greater than 64 µg/mL.

Take `COc1ccc(-c2cc(=O)n(CC[C@](C)(C(=O)NO)S(C)(=O)=O)cc2F)cc1F` [Example 19, (2R)-4-[5-Fluoro-4-(3-fluoro-4-methoxyphenyl)-2-oxopyridin-1(2H)-yl]-N-hydroxy-2-methyl-2-(methylsulfonyl)butanamide]: in assay [1], the IC50 turned out to be 0.879 nM. In addition, the MIC is 1 µg/mL (≈ 2.32 µM) in assay [2], 2 µg/mL (≈ 4.65 µM) in assay [3] and greater than 64 µg/mL in assay [4].

`COc1ccc(-c2cc(=O)n(CC[C@](C)(C(=O)NO)S(C)(=O)=O)cc2F)cc1` [Example 28, (2R)-4-[5-Fluoro-4-(4-methoxyphenyl)-2-oxopyridin-1(2H)-yl]-N-hydroxy-2-methyl-2-(methylsulfonyl)butanamide]: the IC50 in assay [1] was found to be 0.564 nM. In addition, the MIC in assay [2] is 0.5 µg/mL (≈ 1.21 µM); in assay [3] it was 1 µg/mL (≈ 2.42 µM); in assay [4] it was greater than 64 µg/mL.

Consider `C[C@@](CCn1cc(F)c(-c2ccc3c(c2)CCO3)cc1=O)(C(=O)NO)S(C)(=O)=O` [Example 5, (2R)-4-[4-(2,3-Dihydro-1-benzofuran-5-yl)-5-fluoro-2-oxopyridin-1(2H)-yl]-N-hydroxy-2-methyl-2-(methylsulfonyl)butanamide], for which, in assay [1], the IC50 came out at 0.822 nM. In addition, the figures for the MIC in assay [2], in assay [3] and in assay [4] were 1 µg/mL (≈ 2.36 µM), 1 µg/mL (≈ 2.36 µM) and greater than 64 µg/mL, respectively.

As to `C[C@@](CCn1cc(F)c(-c2ccc(-n3ncnn3)cc2)cc1=O)(C(=O)NO)S(C)(=O)=O` [Example 1, (2R)-4-{5-fluoro-2-oxo-4-[4-(2H-tetrazol-2-yl)phenyl]pyridin-1(2H)-yl}-N-hydroxy-2-methyl-2-(methylsulfonyl)butanamide], the IC50 in assay [1] was determined as 1.49 nM. Further, the values for the MIC in assay [2], in assay [3] and in assay [4] were 32 µg/mL (≈ 71 µM), greater than 64 µg/mL and greater than 64 µg/mL, respectively.

As for `C[C@@](CCn1cc(F)c(-c2ccc3c(c2)CCCO3)cc1=O)(C(=O)NO)S(C)(=O)=O` [Example 8, (2R)-4-[4-(3,4-Dihydro-2H-chromen-6-yl)-5-fluoro-2-oxopyridin-1(2H)-yl]-N-hydroxy-2-methyl-2-(methylsulfonyl)butanamide], the IC50 in assay [1] came out at 0.377 nM. Moreover, the values for the MIC in assay [2], in assay [3] and in assay [4] were 1 µg/mL (≈ 2.28 µM), 0.5 µg/mL (≈ 1.14 µM) and greater than 64 µg/mL, respectively.

As to `C[C@@](CCn1cc(F)c(C#Cc2ccccc2)cc1=O)(C(=O)NO)S(C)(=O)=O` [Example 48, (2R)-4-[5-Fluoro-2-oxo-4-(phenylethynyl)pyridin-1(2H)-yl]-N-hydroxy-2-methyl-2-(methylsulfonyl)butanamide], the IC50 in assay [1] was 0.555 nM. The MIC in assay [2] is 0.5 µg/mL (≈ 1.23 µM); in assay [3], 0.06 µg/mL (≈ 0.148 µM); in assay [4], greater than 64 µg/mL.

As to `COc1cnc(-c2ccc(-c3cc(=O)n(CC[C@](C)(C(=O)NO)S(C)(=O)=O)cc3F)cc2)nc1` [Example 21, (2R)-4-{5-Fluoro-4-[4-(5-methoxypyrimidin-2-yl)phenyl]-2-oxopyridin-1(2H)-yl}-N-hydroxy-2-methyl-2-(methylsulfonyl)butanamide], the IC50 in assay [1] was 0.436 nM. The MIC in assay [2] is 1 µg/mL (≈ 2.04 µM); in assay [3], 0.125 µg/mL (≈ 0.255 µM); in assay [4], greater than 64 µg/mL.

In the case of `C[C@@](CCn1cc(F)c(-c2ccccc2)c(F)c1=O)(C(=O)NO)S(C)(=O)=O` [Example 38, (2R)-4-(3,5-Difluoro-2-oxo-4-phenylpyridin-1(2H)-yl)-N-hydroxy-2-methyl-2-(methylsulfonyl)butanamide], the IC50 in assay [1] stood at 0.55 nM. The MIC was 0.5 µg/mL (≈ 1.25 µM) in assay [2], 1 µg/mL (≈ 2.5 µM) in assay [3] and greater than 64 µg/mL in assay [4].

Regarding `COc1cccc(-c2cc(=O)n(CC[C@](C)(C(=O)NO)S(C)(=O)=O)cc2F)c1` [Example 25, (2R)-4-[5-Fluoro-4-(3-methoxyphenyl)-2-oxopyridin-1(2H)-yl]-N-hydroxy-2-methyl-2-(methylsulfonyl)butanamide], the IC50 in assay [1] is 0.412 nM. Further, the MIC in assay [2] is 2 µg/mL (≈ 4.85 µM); in assay [3], 1 µg/mL (≈ 2.42 µM); in assay [4], greater than 64 µg/mL.

For the compound `C[C@@](CCn1cc(F)c(-c2ccc(-c3ccon3)cc2)cc1=O)(C(=O)NO)S(C)(=O)=O` [Example 41, (2R)-4-[5-Fluoro-4-(4-isoxazol-3-ylphenyl)-2-oxopyridin-1(2H)-yl]-N-hydroxy-2-methyl-2-(methylsulfonyl)butanamide], the IC50 in assay [1] was 0.237 nM. Besides, the MIC came out at 0.5 µg/mL (≈ 1.11 µM) in assay [2], 0.5 µg/mL (≈ 1.11 µM) in assay [3] and 16 µg/mL (≈ 35.6 µM) in assay [4].

For orientation: IC50 means the concentration at which inhibition is half-maximal. What is called MIC is the smallest concentration in the dilution series that meets the test's criterion for growth inhibition.
